Common to all, as to format: cell-based
Data set [1] can be described thus: Cytotoxicity assay (CellTiter-Glo cell viability, 72 hours). The conditions noted are these: African green monkey. How it is done: Cytotoxicity was determined by determining the effect of compounds on cell viability. Vero (kidney epithelial cells; ATCC CCL-81) monolayers were trypsinized and 5000 cells/well were seeded (10-15% confluency) into white-wall, flat bottom 96 well microwell plates (Corning) using enriched Dulbecco's Modified Eagle's Medium (Hyclone:DMEM/High Glucose) containing 10% Fetal Bovine Serum (ATCC-30-2020). Plates were incubated overnight at 37° C. in the presence of 5% CO2. Drug-free media was then replaced with media containing serial dilutions of test compound or DMSO carrier. After an additional 72 hours of incubation, viability was indirectly measured using the CellTiter-Glo® Luminescent Cell Viability (Promega) assay. Assay plates were read at peak emission wavelength of 560 nm using a EnVision® Multilabel Plate Reader (Perkin Elmer) or PHERAstar FS Multilabel reader (BMG, Cary, N.C.). […] USA, www.graphpad.com]. For each experiment, compounds were tested in duplicate. IC50 values presented are the range of two biologically independent experiments.

In data set [2] the test system is Staphylococcus aureus, USA 300. Description: Minimal inhibitory concentration assay. The conditions noted are these: USA300, read-out: Minimal Inhibitory Concentrations S. aureus USA 300. The procedure, abridged:
(§1)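 Antibacterial activity was measured by CLSI-standard microdilution in broth, using overnight aerobic incubation at 37 °C. Growth inhibition was scored visually, and MIC taken as the lowest concentration preventing growth.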

The subject of data set [3] is Staphylococcus aureus, USA 300 wherein ClpP is inactivated. Description: Minimal inhibitory concentration assay. A digest of the protocol: as §1
Data set [4] concerns Streptococcus pneumoniae, R6. Nature of the data set: Minimal inhibitory concentration assay. The conditions noted are these: read-out: Minimal Inhibitory Concentrations S. pneumoniae R6. How it is done:
It is understood, that in various aspects, the MIC is determined by a microbroth dilution method. […] In a still further aspect, the MIC is determined by a microbroth dilution method using Staphylococcus aureus, NRS70. […] In an even further aspect, the MIC is determined by a microbroth dilution method using Streptococcus pneumoniae, DAW27. […] In an even further aspect, the MIC is determined using Staphylococcus aureus, USA 300. In a still further aspect, the MIC is determined using Streptococcus pneumoniae, R6. In a further aspect, the MIC is determined using Staphylococcus aureus, USA 300 and compared to the MIC determined using Staphylococcus aureus, USA 300 wherein ClpP is inactivated, thus allowing confirmation that killing is via a ClpP-dependent pathway.
Two fold serial dilutions of test compound in 100 μL of the appropriate broth media were first prepared in 96-well round bottom microtiter plates (Nalgene Nunc International, Rochester, N.Y., USA). […] The plates were then incubated aerobically at 37° C. All strains were incubated overnight. After incubations, in all cases the MIC was recorded as the lowest concentration of drug that prevented bacterial growth. The bacterial strains for which MIC was determined as described in Table 4.

Data set [5] deals with Bacillus subtilis, ATCC 23857. Nature of the data set: Minimal inhibitory concentration assay (microbroth dilution). A digest of the protocol:
as §1

Data set [6] deals with Staphylococcus aureus, ATCC 29213. Described as above. To be noted: ATCC29213, read-out: Minimal Inhibitory Concentrations S. aureus ATCC 29213. A digest of the protocol:
as §1

For data set [7], the system named is Staphylococcus aureus, NRS70. The data set is described as above. The procedure, abridged: as §1
The test system of data set [8] is Streptococcus pyogenes, ATCC 700294. Described as above. The procedure, abridged:
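CLSI broth microdilution: two-fold serial compound dilutions in appropriate broth, inoculated and incubated aerobically overnight at 37° C. MIC read visually as lowest concentration preventing bacterial growth.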

Data set [9] deals with Enterococcus faecalis, ATCC 33186. The description is as above. The conditions noted are these: Enterococcus faecalis, ATCC33186, read-out: Minimal Inhibitory Concentrations E. faecalis ATCC 33186. The procedure, abridged: as §1
The mark [10] stands for this setting: Bacillus subtilis, ATCC23857; read-out: Minimal Inhibitory Concentrations B. subtilis ATCC 23857.
[11] abbreviates: Staphylococcus aureus, NRS70; read-out: Minimal Inhibitory Concentrations S. aureus NRS70.
Where [12] appears, read: Streptococcus pyogenes, ATCC700294; read-out: Minimal Inhibitory Concentrations S. pyogenes ATCC 700294.
The mark [13] stands for this setting: Vero cells, 72 hours, growth inhibition, read-out: Cytotoxicity IC50.

≈ marks a conversion by molar mass, not a printed value. Read-outs that look alike come from different tables or passages of the source. *1 amine or outer side, *2 acyl side, *3 side chain or, on linkers, in order; H or OH if unused. Where a SMILES comes first, the peptide text is derived from it. Bridges are numbered along the chain shown (N, C = ends). [ ]: non-standard residue; d: D form. The star is where a group is joined. NH(1,3-benzodioxol-5-yl) = c1cc2c(cc1N*)OCO2; Phe(3,5-F2) = N[C@@H](Cc1cc(F)cc(F)c1)C(=O)O; Morpholine(3S-CO) = O=C(O)[C@@H]1COCCN1; Pro(4S-Me) = C[C@@H]1CN[C@H](C(=O)O)C1; Pro(4R-Me) = C[C@H]1CN[C@H](C(=O)O)C1; NH(4-Me-phenyl) = Cc1ccc(N*)cc1; aThr = C[C@H](O)[C@H](N)C(=O)O; Pip = O=C(O)[C@@H]1CCCCN1; X3 = Cn1ccc2ccc(N*)cc21; CO = O=C([*:1])[*:2]

As a reminder, the IC50 is the midpoint of a concentration-inhibition curve. Consider `C[C@H]1C[C@H]2C(=O)O[C@@H](C)[C@H](NC(=O)[C@H](Cc3cc(F)cc(F)c3)NC(=O)Nc3ccc4c(c3)OCO4)C(=O)N3CCC[C@H]3C(=O)N3CCCC[C@H]3C(=O)N[C@@H](C)C(=O)N2C1` [Compound 196, (S)-2-(3-(benzo[d][1,3]dioxol-5-yl)ureido)-3-(3,5-difluorophenyl)-N-((2R,6S,8aS,14aS,20S,21S,23aS)-2,6,21-trimethyl-5,8,14,19,23-pentaoxooctadecahydro-1H,5H,14H,19H-pyrido[2,1-i]dipyrrolo[2,1-c:2′,1′-l][1]oxa[4,7,10,13]tetraazacyclohexadecin-20-yl)propanamide] ({NH(1,3-benzodioxol-5-yl)-CO}-[Phe(3,5-F2)][aThr]P[Pip]A[Pro(4S-Me)]; ester 2-C), for which, in data set [1], inhibition was half-maximal at 52.8 ± 4.9 µM (IC50 at 72 h).

Take `C[C@@H]1C[C@H]2C(=O)O[C@@H](C)[C@H](NC(=O)[C@H](Cc3cc(F)cc(F)c3)NC(=O)Nc3ccc4c(c3)OCO4)C(=O)N3CCC[C@H]3C(=O)N3CCOC[C@H]3C(=O)N[C@@H](C)C(=O)N2C1` [Compound 199, (S)-2-(3-(benzo[d][1,3]dioxol-5-yl)ureido)-3-(3,5-difluorophenyl)-N-((6aS,12S,13S,15aS,17R,21S,23aS)-13,17,21-trimethyl-6,11,15,20,23-pentaoxooctadecahydro-6H,11H,15H-[1,4]oxazino[3,4-i]dipyrrolo[2,1-c:2′,1′-l][1]oxa[4,7,10,13]tetraazacyclohexadecin-12-yl)propanamide] ({NH(1,3-benzodioxol-5-yl)-CO}-[Phe(3,5-F2)][aThr]P[Morpholine(3S-CO)]A[Pro(4R-Me)]; ester 2-C): the MIC in [2] is 0.078 µM (≈ 0.0655 µg/mL); in [4], < 0.02 µM; in [5] (setting [10]), 0.039 µM (≈ 0.0328 µg/mL); in data set [6], 0.039 µM (≈ 0.0328 µg/mL); in [7] (setting [11]), 0.039 µM (≈ 0.0328 µg/mL); in data set [8] (setting [12]), 0.039 µM (≈ 0.0328 µg/mL). For the same molecule, the “Minimal Inhibitory Concentrations S. aureus USA 300 ΔClpP” value in data set [3] is >20 µM.

For the molecule `Cc1ccc(NC(=O)N[C@@H](Cc2cc(F)cc(F)c2)C(=O)N[C@@H]2C(=O)N3CCC[C@H]3C(=O)N3CCCC[C@H]3C(=O)N[C@@H](C)C(=O)N3C[C@@H](C)C[C@H]3C(=O)O[C@H]2C)cc1` [Compound 200, (S)-3-(3,5-difluorophenyl)-2-(3-(p-tolyl)ureido)-N-((2R,6S,8aS,14aS,20S,21S,23aS)-2,6,21-trimethyl-5,8,14,19,23-pentaoxooctadecahydro-1H,5H,14H,19H-pyrido[2,1-i]dipyrrolo[2,1-c:2′,1′-l][1]oxa[4,7,10,13]tetraazacyclohexadecin-20-yl)propanamide] ({NH(4-Me-phenyl)-CO}-[Phe(3,5-F2)][aThr]P[Pip]A[Pro(4S-Me)]; ester 2-C), the “Minimal Inhibitory Concentrations S. aureus USA 300 ΔClpP” value in data set [3] was 100 µM. The IC50 at 72 h in [1] (setting [13]) was found to be 26.7 ± 3.6 µM.

Turning to `C[C@@H]1C[C@H]2C(=O)O[C@@H](C)[C@H](NC(=O)[C@H](Cc3cc(F)cc(F)c3)NC(=O)Nc3ccc4ccn(C)c4c3)C(=O)N3CCC[C@H]3C(=O)N3CCCC[C@H]3C(=O)N[C@@H](C)C(=O)N2C1` [Compound 306, (S)-3-(3,5-difluorophenyl)-2-(3-(1-methyl-1H-indol-6-yl)ureido)-N-((2R,6S,8aS,14aS,20S,21S,23aS)-2,6,21-trimethyl-5,8,14,19,23-pentaoxooctadecahydro-1H,5H,14H,19H-pyrido[2,1-i]dipyrrolo[2,1-c:2′,1′-l][1]oxa[4,7,10,13]tetraazacyclohexadecin-20-yl)propanamide] ({X3-CO}-[Phe(3,5-F2)][aThr]P[Pip]A[Pro(4R-Me)]; ester 2-C), the MIC in [2] worked out at 0.156 µM (≈ 0.132 µg/mL); in data set [5] (Bacillus subtilis, ATCC23857, read-out: Minimal Inhibitory Concentrations B. subtilis ATCC 23857), 0.078 µM (≈ 0.0661 µg/mL); in data set [9], 0.039 µM (≈ 0.033 µg/mL); in [6], 0.156 µM (≈ 0.132 µg/mL); in data set [7] (Staphylococcus aureus, NRS70, read-out: Minimal Inhibitory Concentrations S. aureus NRS70), 0.078 µM (≈ 0.0661 µg/mL); in [8] (Streptococcus pyogenes, ATCC700294, read-out: Minimal Inhibitory Concentrations S. pyogenes ATCC 700294) it was 0.313 µM (≈ 0.265 µg/mL). Further, the “Minimal Inhibitory Concentrations S. aureus USA 300 ΔClpP” value in data set [3] was >20 µM. Also, in [1] (setting [13]), the IC50 at 72 h turned out to be 11.8 ± 0.8 µM.

As to `CN[C@@H]1[C@H](O)[C@H](NC)[C@H]2O[C@@]3(O)C(=O)C[C@@H](C)O[C@H]3O[C@@H]2[C@H]1O` [Spectinomycin, spectinomycin, reference compound], the MIC in data set [2] was 50 µM (≈ 16.6 µg/mL); in data set [4], 6.3 µM (≈ 2.09 µg/mL); in data set [5] (setting [10]), 6.3 µM (≈ 2.09 µg/mL); in data set [6] it was 50 µM (≈ 16.6 µg/mL); in data set [7] (setting [11]), > 800 µM; in data set [8] (setting [12]) it was 12.5 µM (≈ 4.15 µg/mL). Besides, in [3], the “Minimal Inhibitory Concentrations S. aureus USA 300 ΔClpP” value is 25 µM.

The values above are taken from US10457707B2, “Substituted urea depsipeptide analogs as activators of the CLPP endopeptidase” (priority 2015, dated 2019).
